Reference: ChEMBL document CHEMBL4118050, “Gardenifolins A-H, Scalemic Neolignans from Gardenia ternifolia: Chiral Resolution, Configurational Assignment, and Cytotoxic Activities against the HeLa Cancer Cell Line” (J Nat Prod, 2017)
Calls of active or inactive are those of the source. The rule behind the calls is not given here.

Assays:
Assay type in all cases: functional, cell-based
HeLa [1] = experiment: Cytotoxicity against human HeLa cells assessed as reduction in cell viability after 72 hrs by WST8 assay
HeLa [2] = experiment: Induction of apoptosis in human HeLa cells assessed as loss of cytoplasmic and nuclear integrity at 25 uM after 72 hrs by acridine orange/Hoechst 33342 staining based microscopic method
HeLa [3] = experiment: Induction of apoptosis in human HeLa cells assessed as nuclear fragmentation at 25 uM after 72 hrs by acridine orange/Hoechst 33342 staining based microscopic method

COC(=O)/C=C/c1cc(OC)c2c(c1)[C@@H](CO)[C@@H](c1ccc(O)c(OC)c1)O2
IC50 (HeLa [1]): 105 µM

COC(=O)/C=C/c1cc(OC)c2c(c1)[C@@H](CO)[C@H](c1ccc(O)c(OC)c1)O2
IC50 (HeLa [1]): 21 µM | Activity (HeLa [2]): Active | Activity (HeLa [3]): Active

COC(=O)/C=C\c1cc(OC)c2c(c1)[C@H](CO)[C@@H](c1ccc(O)c(OC)c1)O2
IC50 (HeLa [1]): 78.8 µM

COC(=O)/C=C/c1cc(OC)c2c(c1)[C@H](CO)[C@@H](c1ccc(O)c(OC)c1)O2
IC50 (HeLa [1]): 90 µM

COC(=O)/C=C\c1cc(OC)c2c(c1)[C@@H](CO)[C@@H](c1ccc(O)c(OC)c1)O2
IC50 (HeLa [1]): 32.5 µM

COC(=O)/C=C\c1cc(OC)c2c(c1)[C@@H](CO)[C@H](c1ccc(O)c(OC)c1)O2
IC50 (HeLa [1]): 87.3 µM

O=c1[nH]cc(F)c(=O)[nH]1 [FLUOROURACIL]
IC50 (HeLa [1]): 13.9 µM

COC(=O)/C=C\c1cc(OC)c2c(c1)[C@H](CO)[C@H](c1ccc(O)c(OC)c1)O2
IC50 (HeLa [1]): 103 µM

COC(=O)/C=C/c1cc(OC)c2c(c1)[C@H](CO)[C@H](c1ccc(O)c(OC)c1)O2
IC50 (HeLa [1]): 96.1 µM
